Experimental data: EP3839043A1, “SCREENING METHODS FOR COMPOUNDS MODULATING POLYAMINE TRANSPORT” (Katholieke Universiteit Leuven, priority 2019, dated 2021)

Assays:
Purified ATP13A2 = biological target: T1, Purified ATP13A2 (Homo sapiens, UniProt Q9NQ11); conditions: 1 mM SPM
T1 sequence (Q9NQ11 1-1175 isoform Q9NQ11-3): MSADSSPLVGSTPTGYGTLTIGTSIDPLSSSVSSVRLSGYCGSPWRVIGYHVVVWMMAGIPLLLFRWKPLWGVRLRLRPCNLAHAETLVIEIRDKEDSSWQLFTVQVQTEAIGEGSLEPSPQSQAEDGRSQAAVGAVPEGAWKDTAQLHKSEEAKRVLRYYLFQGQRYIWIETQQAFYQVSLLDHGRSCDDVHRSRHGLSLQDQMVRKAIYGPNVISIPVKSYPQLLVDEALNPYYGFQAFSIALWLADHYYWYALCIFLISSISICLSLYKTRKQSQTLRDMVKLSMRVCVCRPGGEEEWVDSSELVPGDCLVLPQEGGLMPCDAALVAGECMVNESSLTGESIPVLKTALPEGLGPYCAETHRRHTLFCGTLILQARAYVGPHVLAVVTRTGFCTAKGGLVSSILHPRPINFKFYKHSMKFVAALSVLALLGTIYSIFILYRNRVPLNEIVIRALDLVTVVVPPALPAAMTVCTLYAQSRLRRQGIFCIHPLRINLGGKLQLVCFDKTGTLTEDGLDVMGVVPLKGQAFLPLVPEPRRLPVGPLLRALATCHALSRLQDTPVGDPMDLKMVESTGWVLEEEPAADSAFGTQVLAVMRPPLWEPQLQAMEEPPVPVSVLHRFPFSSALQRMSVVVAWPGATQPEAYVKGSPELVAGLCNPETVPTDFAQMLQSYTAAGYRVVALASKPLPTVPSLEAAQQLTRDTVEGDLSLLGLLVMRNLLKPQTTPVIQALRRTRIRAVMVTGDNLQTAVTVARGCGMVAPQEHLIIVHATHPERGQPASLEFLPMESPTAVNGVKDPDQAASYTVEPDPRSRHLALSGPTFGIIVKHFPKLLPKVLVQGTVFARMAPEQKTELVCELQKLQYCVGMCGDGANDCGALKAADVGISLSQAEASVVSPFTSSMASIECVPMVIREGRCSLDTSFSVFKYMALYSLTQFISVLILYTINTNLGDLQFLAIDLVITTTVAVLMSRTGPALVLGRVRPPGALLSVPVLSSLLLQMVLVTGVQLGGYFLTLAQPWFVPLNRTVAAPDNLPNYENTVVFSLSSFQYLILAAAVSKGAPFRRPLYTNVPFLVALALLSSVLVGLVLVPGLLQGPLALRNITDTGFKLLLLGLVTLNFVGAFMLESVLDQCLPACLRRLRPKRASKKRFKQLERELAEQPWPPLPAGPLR
Experimental: (§1) PLoS One 13, e0193228, (2018)].
(§2) In case of purified ATP13A2, 125 µM PA and 125 µM PI(3,5)P2 were included in the reaction mixture. To determine the sensitivity of the ATP13A2 phosphoenzyme to ATP or a combination of ATP and SPM, 30 s after adding ^32P-ATP, samples were incubated with non-radioactive ATP (5 mM in experiments using microsomes, 1 mM when purified ATP13A2 was used) and SPM (1 mM) before the reaction was stopped at indicated time points. The incorporation of ^32P was visualized following SDS-PAGE under acidic conditions and subsequently detected by autoradiography (microsomes) or liquid scintillation counting (purified ATP13A2) (Liquid Scintillation Analyzer TRI-CARB 2900TR).

ATP13A2 = ATP13A2 (Homo sapiens, UniProt Q9NQ11)
Experimental: as §1, §2

With NCCCNCCCCNCCCN [Spermine, spermine] the “dephosphorylation of purified WT after chase with cold ATP” value (Purified ATP13A2) was “clearly stimulates dephosphorylation”, the ATP13A2 phospho-enzyme levels (ATP13A2; WT-OE microsomes 20 µg, 60 s with [γ-32P] ATP) was “dose-dependent reduction” and the “dephosphorylation rate following a chase with non-radioactive ATP” value (ATP13A2; WT-OE microsomes, 1 mM SPM) was “significantly higher dephosphorylation rate”.
